Assay results published in patent publication US9504702B2, “Methods of inhibition of protein fucosylation in vivo using fucose analogs” (Seattle Genetics, Inc., priority 2010, dated 2016).
Like-named read-outs stand apart in the source and are kept apart here.

Assays:
[1] = tested on: LP-1, a human multiple myeloma cell line (IgG fucosylation); assay: Fucosylation of LP-1-generated IgG, AOL dot blot; format: cell-based
How it was run: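 LP-1 cells (250,000 cells/mL) treated with 100 μM of each analog for 5 days at 37° C in IgG-depleted RPMI/10% FBS. Secreted IgG purified on protein A, ~0.5 μg dot-blotted (Ponceau S loading check) and probed with 5 μg/ml biotinylated AOL, detected with streptavidin-HRP.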

[2] = tested on: LP-1 cells (IgG heavy chain fucose signal); assay: Fucosylation of LP-1 IgG, SDS-PAGE/Western blot with biotinylated AOL; format: cell-based, human; conditions: for AOL signal on IgG heavy chain, SDS-PAGE/Western blot: 50 μM, LP-1 cells, versus untreated cells; for inhibition of fucosylation of antibody (AOL signal): IgG isolated from LP-1 culture
Description: The ability of different fucose analogs to inhibit the fucosylation of IgG antibodies produced by human myeloma cells as well as the fucosylation of surface proteins of human cancer cell lines was investigated. In a first study, the ability of fucose analogs to inhibit fucosylation of IgG produced by the cell line LP-1, a human multiple myeloma cell line, was investigated. The antibodies produced by, and found in the culture medium of, untreated LP-1 cells were confirmed to be of the IgG type by western blot using anti-human IgG detection (data not shown). This was accomplished by growing 20 mL of LP-1 cells in a T-75 culture flask (250,000 cells/mL) for 5 days at 37° C. in a humidified atmosphere of 5% CO2 in IgG-depleted tissue culture media (90% RPMI with 10% IgG-depleted heat inactivated FBS). Harvest of the cells was by centrifugation (200×g, 4° C., 5 min), and the culture medium was collected. The medium was filtered through a 0.22 μm filter and then incubated with 1 mL of a 50% MabSelect™ protein A resin slurry in PBS at 4° C. with rotation overnight to capture the IgG. The resin slurry was allowed to settle and most of the medium was removed. The resin slurry was transferred with ˜0.5 mL media to two cellulose acetate filter spin cups and was centrifuged at 5000×g for 1 min. The resin bed was then washed 3 times with 0.5 mL PBS. The IgG was eluted with 700 μL of Pierce IgG elution buffer (into with 52 μL of 9 M Tris buffer, pH 9.5 to adjust the pH after elution). The resulting elution was transferred to a 10,000 MW cutoff centrifugal concentrator and the sample was concentrated to approximately 20 μL. 1 μL of the concentrated sample was loaded on an SDS polyacrylamide gel for separation followed by blotting onto nitrocellulose membrane. Staining of the blot for total protein was with Ponceau S and for identification of isotype with anti-human IgG antibody.
Antibody fucosylation can also be determined using a biotin-labeled Aspergillus oryzae L-fucose-specific lectin (AOL), which binds specifically to the α-1,6-linked fucose of the antibody. This method for fucose detection works for both blotted protein that has either been separated by SDS-PAGE or for protein that has been applied to nitrocellulose without separation. The […] signal generated using the AOL-biotin conjugate with streptavidin-HRP binding and ECL detection can be quantitated using an Alpha Innotech FlourChem® Q system.
The three analogs chosen were used at a concentration of 50 μM. These analyses compared the activity of 2-fluorofucose (SGD-2083), 2-fluorofucose peracetate (SGD-2084), and alkynyl fucose peracetate (SGD-1890) with antibody from untreated cells.

[3] = tested on: antibody core fucosylation (CHO DG44 cell line producing humanized IgG1 anti-CD70 antibody h1F6); assay: Inhibition of antibody core fucosylation in CHO DG44 cell culture producing h1F6; format: cell-based; conditions: day 5, CHO DG44 h1F6; for Inhibition at 50 μM: 50 μM fucose analog, read-out: Inhibition at 50 μM; for inhibition at 1000 µM: 1 mM fucose analog
How it was run: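 CHO DG44 cells producing h1F6 were seeded at 7.5×10^5 cells/mL in medium with IGF, penicillin and streptomycin plus fucose analog at 50 μM or 1 mM, grown at 37 °C, 5% CO2 with shaking. On day 5 the antibody was purified from supernatant by protein A and eluted, then neutralized with Tris pH 8.0.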

Structure (SMILES) | inhibition of IgG fucosylation in human cells (decrease in AOL signal, dot blot) ([1]; 100 μM, LP-1 cells) | dot blot results (% fucose signal of control) ([1]; LP-1-generated IgG, 100 μM) | AOL signal on IgG heavy chain, SDS-PAGE/Western blot [2] | inhibition of fucosylation of antibody (AOL signal) [2] | Inhibition at 50 μM ([3]; 120 h) | inhibition at 1000 µM ([3]; 120 h) | activity at 100 µM ([1]; Homo sapiens, LP-1, 120 h, 5 days, LP-1 cells, AOL dot blot, multiple samples separated by semicolon, read-out: % of control fucosylated IgG value) | Inhibition at 50 μM ([3]; CHO-DG44, 120 h) | inhibition at 1000 µM ([3]; CHO-DG44, 120 h)
C#CC(OC(C)=O)[C@@H](OC(C)=O)[C@@H](OC(C)=O)[C@@H](C=O)OC(C)=O (some centres unmarked) [SGD-1890, 5-ethynylarabinose tetraacetate] | potentially strong inhibitors | ~1 % fucose signal of control | did not show reactivity with the biotinylated AOL | did | > 80% | > 80% | – | – | –
C[C@H](O)[C@@H](O)[C@@H](O)[C@H](F)C=O [SGD-2083, 2-fluoro-2-deoxy fucose] | – | – | no apparent change in the AOL signal | did not inhibit fucosylation of antibody | – | – | 66% | > 80% | > 80%
